Assays:
mouse recombinant sEH = target: T1, mouse recombinant sEH (Mus musculus, UniProt P34914); assay: Fluorescence-based sEH activity assay (PHOME substrate), mouse enzyme; format: biochemical; conditions: dose-dependent assay; read-out: Mouse sEH Inhibition IC50
T1 sequence (P34914 1-554): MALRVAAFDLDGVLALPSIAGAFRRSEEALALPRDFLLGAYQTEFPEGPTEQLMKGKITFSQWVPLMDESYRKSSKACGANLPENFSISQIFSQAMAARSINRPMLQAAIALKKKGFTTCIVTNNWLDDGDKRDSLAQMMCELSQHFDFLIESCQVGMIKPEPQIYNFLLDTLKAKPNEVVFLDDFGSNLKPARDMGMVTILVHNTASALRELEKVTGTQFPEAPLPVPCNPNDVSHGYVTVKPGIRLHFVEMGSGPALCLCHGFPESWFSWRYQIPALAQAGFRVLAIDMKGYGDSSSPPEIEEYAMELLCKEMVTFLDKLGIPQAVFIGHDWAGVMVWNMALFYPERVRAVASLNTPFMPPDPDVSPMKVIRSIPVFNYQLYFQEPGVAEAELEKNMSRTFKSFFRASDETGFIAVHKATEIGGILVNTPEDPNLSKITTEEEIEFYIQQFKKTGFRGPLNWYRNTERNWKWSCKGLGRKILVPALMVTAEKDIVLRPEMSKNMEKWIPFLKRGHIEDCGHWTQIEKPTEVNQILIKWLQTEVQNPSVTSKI
Procedure: (§1) A fluorescence-based sEH activity assay provided a convenient method for screening human epoxide hydrolase inhibitors. The assay utilized (3-Phenyl-oxiranyl)-acetic acid cyano-(6-methoxy-naphthalen-2-yl)-methyl ester (PHOME) as a substrate. […] The inhibitory function of the compounds on sEH activity was tested as detailed in the product manual from Cayman Chemical. Briefly, 3 mL sEH assay buffer (10×) was diluted with 27 mL HPLC-grade water. This final assay buffer, 25 mM bis-tris (pH 7.0), was used in the assay and for the dilution of the soluble epoxide hydrolase (sEH) enzyme. Amounts of 12 μL each of human and mouse recombinant sEH were thawed on ice. Prior to assaying, 588 μL cold assay buffer was added directly to the enzyme vial. An amount of 190 μL assay buffer and 5 μL solvent (40% DMSO in assay buffer) were added to the background wells. In the 100% initial activity wells, 185 μL assay buffer, 5 μL sEH, and 5 μL solvent were added. In inhibitor wells, 185 μL assay buffer, 5 μL solution of the synthesized compounds, and 5 μL of recombinant enzyme solution were added. To start the reaction, 5 μL of PHOME was added to each well at a final concentration of 0.25 mM. The microwell plate was shaken carefully for 10 s and covered with a plate cover.
(§2) Average fluorescence (AF) of the background wells and 100% initial activity in the wells and of each of the inhibitors were determined. The background AF was subtracted from the 100% initial activity and inhibitor AFs. The % sEH activity is calculated as (inhbitited AF/% 100 initial activity) × 100.
(§3) Multiple concentrations of the inhibitors were tested followed by plotting of the percent activity as a function of inhibitor concentration to determine the IC50 values.

human recombinant sEH = target: T2, human recombinant sEH (Homo sapiens, UniProt P34913); assay: Fluorescence-based sEH activity assay (PHOME substrate), human enzyme; format: biochemical; conditions: for IC50: dose-dependent assay, read-out: Human sEH Inhibition IC50
T2 construct: purchased Cayman Chemical 10011671
T2 sequence (P34913 1-555): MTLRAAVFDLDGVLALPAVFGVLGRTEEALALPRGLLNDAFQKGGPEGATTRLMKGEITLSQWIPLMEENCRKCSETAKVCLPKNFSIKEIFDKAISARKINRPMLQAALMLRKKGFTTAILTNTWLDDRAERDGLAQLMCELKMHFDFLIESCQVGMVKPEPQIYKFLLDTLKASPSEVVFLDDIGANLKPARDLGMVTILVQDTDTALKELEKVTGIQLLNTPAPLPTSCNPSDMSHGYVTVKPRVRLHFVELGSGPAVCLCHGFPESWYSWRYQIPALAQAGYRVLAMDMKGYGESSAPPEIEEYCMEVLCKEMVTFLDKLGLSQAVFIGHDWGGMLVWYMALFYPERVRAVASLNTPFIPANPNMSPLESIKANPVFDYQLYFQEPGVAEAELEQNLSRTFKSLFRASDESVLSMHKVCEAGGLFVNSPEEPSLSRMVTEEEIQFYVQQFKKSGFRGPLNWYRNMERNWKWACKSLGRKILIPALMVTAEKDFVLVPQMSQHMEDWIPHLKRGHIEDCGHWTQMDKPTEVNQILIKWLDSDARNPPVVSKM
Procedure: as §1, with “added.” for “added. To start the reaction, 5 μL of PHOME was added to each well at a final concentration of 0.25 mM. The microwell plate was shaken carefully for 10 s and covered with a plate cover.”
as §2, §3

Compound | IC50 (mouse recombinant sEH) | Human sEH % Inhibition (human recombinant sEH) | IC50 (human recombinant sEH) | human sEH inhibitory activity (in words) (human recombinant sEH)
O=C(NC12CC3CC(CC(C3)C1)C2)NS(=O)(=O)c1ccccc1 [Compound 4a] | > 1000 nM | 93.61% | 100 nM | 
Cc1ccc(S(=O)(=O)NC(=O)NC23CC4CC(CC(C4)C2)C3)cc1 [Compound 4b, N-((adamantan-1-yl)carbamoyl)-4-methylbenzenesulfonamide] | 850 nM | 91.78% | 16.3 nM | 
O=C(NC12CC3CC(CC(C3)C1)C2)NS(=O)(=O)c1ccc(C(F)(F)F)cc1 [Compound 4c, N-((adamantan-1-yl)carbamoyl)-4-(trifluoromethyl)benzenesulfonamide] |  | 34.06% |  | 
CC(C)(C)c1ccc(S(=O)(=O)NC(=O)NC23CC4CC(CC(C4)C2)C3)cc1 [Compound 4d] |  | 32.7% |  | 
COc1ccc(S(=O)(=O)NC(=O)NC23CC4CC(CC(C4)C2)C3)cc1 [Compound 4e] | > 1000 nM | 95.39% | 2.94 nM | 
O=C(NC12CC3CC(CC(C3)C1)C2)NS(=O)(=O)c1cccc(OC(F)(F)F)c1 [Compound 4g, N-((adamantan-1-yl)carbamoyl)-3-(trifluoromethoxy)benzenesulfonamide] |  | 1.65% |  | sEH inhibition decreased to a significant extent
O=C(NC12CC3CC(CC(C3)C1)C2)NS(=O)(=O)c1ccccc1OC(F)(F)F [Compound 4h, N-((adamantan-1-yl)carbamoyl)-2-(trifluoromethoxy)benzenesulfonamide] |  | 6.28% |  | sEH inhibition decreased to a significant extent
N#Cc1ccc(S(=O)(=O)NC(=O)NC23CC4CC(CC(C4)C2)C3)cc1 [Compound 4i, N-((adamantan-1-yl)carbamoyl)-4-cyanobenzenesulfonamide] |  | 19.36% |  | 
O=C(NC12CC3CC(CC(C3)C1)C2)NS(=O)(=O)c1ccc(F)cc1 [Compound 4j] | > 1000 nM | 85.26% | 120 nM | 
CC(C)(C)c1ccc(S(=O)(=O)NC(=S)NC23CC4CC(CC(C4)C2)C3)cc1 [Compound 6b, N-((adamantan-1-yl)carbamothioyl)-4-(tert-butyl)benzenesulfonamide] |  | 1.80% |  | 
COc1ccc(S(=O)(=O)NC(=S)NC23CC4CC(CC(C4)C2)C3)cc1 [Compound 6c, N-((adamantan-1-yl)carbamothioyl)-4-methoxybenzenesulfonamide] |  | 2.50% |  | 
CS/C(=N\S(=O)(=O)c1ccc(OC(F)(F)F)cc1)NC12CC3CC(CC(C3)C1)C2 [Compound 7] |  | 32.83% |  | 
N/C(=N\S(=O)(=O)c1ccc(OC(F)(F)F)cc1)NC12CC3CC(CC(C3)C1)C2 [Compound 8a] |  | 40.19% |  | 
CN/C(=N\S(=O)(=O)c1ccc(OC(F)(F)F)cc1)NC12CC3CC(CC(C3)C1)C2 [Compound 8b] |  | 13.06% |  | 
CNN/C(=N\S(=O)(=O)c1ccc(OC(F)(F)F)cc1)NC12CC3CC(CC(C3)C1)C2 [Compound 9b] |  | 9.83% |  | 
O=S(=O)(/N=C(\NNc1ccccc1)NC12CC3CC(CC(C3)C1)C2)c1ccc(OC(F)(F)F)cc1 [Compound 9c] |  | 4.71% |  | 
CN(C)N/C(=N\S(=O)(=O)c1ccc(OC(F)(F)F)cc1)NC12CC3CC(CC(C3)C1)C2 [Compound 9d] |  | 7.65% |  | 
Cc1ccc(S(=O)(=O)NC(=O)NC23CC4CC(CC(O)(C4)C2)C3)cc1 [Compound 10a, N-((3-hydroxyadamantan-1-yl)carbamoyl)-4-methylbenzenesulfonamide] |  | 22.47% |  | 
O=C(NC12CC3CC(CC(O)(C3)C1)C2)NS(=O)(=O)c1ccc(C(F)(F)F)cc1 [Compound 10b, N-((-3-hydroxyadamantan-1-yl)carbamoyl)-4-(trifluoromethyl)benzenesulfonamide] |  | 21.26% |  | 
CC(C)(C)c1ccc(S(=O)(=O)NC(=O)NC23CC4CC(CC(O)(C4)C2)C3)cc1 [Compound 10c, 4-(tert-butyl)-N-((-3-hydroxyadamantan-1-yl)carbamoyl)benzenesulfonamide] |  | 3.08% |  | 
O=C(NC12CC(C1)C2)NS(=O)(=O)c1ccc(OC(F)(F)F)cc1 [Compound 11a, N-(bicyclo [1.1.1]pentan-1-ylcarbamoyl)-4-(trifluoromethoxy)benzenesulfonamide] |  | 4.28% |  | 
N#CC12CC(NC(=O)NS(=O)(=O)c3ccc(OC(F)(F)F)cc3)(C1)C2 [Compound 11b, N-((3-cyanobicyclo [1.1.1]pentan-1-yl)carbamoyl)-4-(trifluoromethoxy)benzenesulfonamide] |  | 7.47% |  | 
O=C(NC12CC(F)(C1)C2)NS(=O)(=O)c1ccc(OC(F)(F)F)cc1 [Compound 11c, N-((3-fluorobicyclo [1.1.1]pentan-1-yl)carbamoyl)-4-(trifluoromethoxy)benzenesulfonamide] |  | 1.67% |  | 
O=C(NC1C2CC3CC(C2)CC1C3)NS(=O)(=O)c1ccc(OC(F)(F)F)cc1 (stereo not shown) [Compound 12, N-((adamantan-2-yl)carbamoyl)-4-(trifluoromethoxy)benzenesulfonamide] |  | 34.53% |  | none of them showed any activity
O=C(NS(=O)(=O)c1ccc(OC(F)(F)F)cc1)N1CCC(C(F)(F)F)CC1 [Compound 13, N-((4-(trifluoromethoxy)phenyl)sulfonyl)-4-(trifluoromethyl)piperidine-1-carboxamide] |  | 2.75% |  | none of them showed any activity
O=C(NC1CCCCC1)NS(=O)(=O)c1ccc(OC(F)(F)F)cc1 [Compound 14, N-(cyclohexylcarbamoyl)-4-(trifluoromethoxy)benzenesulfonamide] |  | 32.26% |  | none of them showed any activity
CC(C)(C)OC(=O)N1CCC(NC(=O)NS(=O)(=O)c2ccc(OC(F)(F)F)cc2)CC1 [Compound 16, tert-butyl 4-(3-((4-(trifluoromethoxy)phenyl)sulfonyl)ureido)piperidine-1-carboxylate] |  | 23.03% |  | none of them showed any activity
O=C(NC1CCNCC1)NS(=O)(=O)c1ccc(OC(F)(F)F)cc1 [Compound 17, N-(piperidin-4-ylcarbamoyl)-4-(trifluoromethoxy)benzenesulfonamide] |  | 32.02% |  | none of them showed any activity

— paper PMC11242993, “Evaluation of the Therapeutic Potential of Sulfonyl Urea Derivatives as Soluble Epoxide Hydrolase (sEH) Inhibitors” (Molecules, 2024)
